Data set [1] concerns HepG2 and primary rat hepatocytes. Briefly: Release of Annexin V-positive MPs from hepatocytes (flow cytometry). The format is cell-based, human (HepG2); rat (primary hepatocytes). The conditions noted are these: hepatocytes incubated with 0.25 mM FFA up to 24 h, vs controls (FIGS. 2D, 2F, 9). As for the experimental part:
For microparticles (MPs) isolation, HepG2 and primary rat hepatocytes were seeded onto a 100 mm dish and cultured until reaching 80-85% of confluence. Cells were incubated with 0.25 mM of palmitic, stearic, oleic or linoleic acid (FFA) in serum-free DMEM, supplemented with 1.1% penicillin and streptomycin, 1% endotoxin-free bovine serum albumin (BSA), for up to 24 h. […] The uptake of FFAs from hepatocytes was evaluated by Oil red-O staining kit (Cayman, Ann Arbor, Mich., USA) according to the manufacturer instruction. To determine the effect of caspase 3 activity, hepatocytes were treated with a selective caspase 3 inhibitor, Ac-DEVD-CHO (BD Pharmingen, Franklin Lakes, N.J., US). Control cells were incubated with the same serum-free media in association to the vehicle that was used to dissolve the FFAs. After 24 h, the supernatant were collected and centrifuged twice at 3,000 rpm for 15 minutes to remove cell debris and aggregates. The supernatant was then transferred to new tubes and ultracentrifuged at 100,000 g for 90 minutes at 10° C., to avoid contamination of exosomes.
The supernatant was collected in new tubes and used as a MP-free control and the pelleted MPs were resuspended in 200 μl of PBS for flow cytometry or in 500 μl of EGM-2 growth medium for subsequent in vitro studies. The concentration of microparticles μg/mL was determined by the BCA protein assay and different concentrations of MPs (50, 125, 250 and 500 μg/mL) were used to perform the dose-dependent angiogenesis in vitro assays. For selected purposes, in particular for the characterization analyses, crude MPs were purified by 10-70% sucrose gradient ultracentrifugation at 150,000 g for 18 h at 10° C., collected as fractions in new tubes. […]
Flow cytometry analyses for microparticles (or endothelial cells) detection were performed by using BD LSRII Flow Cytometer System (BD Biosciences, San Jose, Calif., USA) and the data were analyzed using FlowJo software (TreeStar Inc., Ashland, Oreg., USA). […]
In general terms: In flow cytometry, cells or beads pass a laser one at a time.

In data set [2] the test system is HUVECs. Briefly: HUVEC migration (Boyden's chamber chemotaxis, wound healing). It counts as cell-based, human. The conditions noted are these: supernatants from hepatocytes incubated with FFA up to 24 h; VEGF-A positive control. On the procedure: In vitro migration studies have been performed by using human umbilical cell endothelial cells (HUVECs). Wound healing assay was performed to analyze chemokinesis (non-oriented migration) by using collagen-coated 6-well culture plate, where a silicon elastomer (PDMS) strip was placed vertically to the bottom of every well to create the artificial wound. HUVECs were plated and grown until reaching the complete confluence. HUVECs were treated with EBM-2 supplemented with 100 ng/mL of VEGF (Peprotech, Rocky Hill, N.J., USA), hepatocytes-derived MPs, MP-free supernatant or supernatant collected after 24 hours of treatment with FFAs. The strips were removed carefully and migration of cells was detected by a confocal microscope, capturing one picture per field every 10 minutes for 48 hours. Mitomycin (1 μg/ml) was used to inhibit cell proliferation during wound healing assay. Data were analyzed by using Wimscratch software (Wimasis, Munich, Germany) in order to get the total cell-covered area (pixel). Boyden's chamber assay was performed to analyze chemotaxis (oriented migration) by using cell culture inserts 8 μm pore size (Millipore, Billerica, Mass., USA) and 24-well plate. Each well was filled with 500 μl of serum free EBM-2 media in presence or absence of the following chemoattractants: 100 ng/mL VEGF; hepatocytes-derived MPs; MP-free supernatant or conditioned supernatant. The inserts were placed on top of each well and 150 μl of cell suspension (5×10^4 cells) was added. Plates were incubated overnight at 37° C., and then the filters were removed and stained with Vectashield mounting medium with 4′,6-diamino-2-phenylindole (DAPI) (Vector Labs, Burlingame, Calif., USA).
Migrated cells were detected with a fluorescence microscope and number per field of their nuclei was counted. For the ex vivo studies, PFP isolated from different groups of mice (chow, HF/HCarb, MCD fed mice and mice injected with control siRNA, VNN1 siRNA or PBS as vehicle) were ultracentrifuged at 100,000 g for 1 h at 10° C. to pellet the blood MPs.

Results on two compounds are retold here after US20150247149A1, “Detecting and Treating Liver Damage” (The Regents of the University of California, priority 2012, published 2015).

As to `CCCCCCCCCCCCCCCC(=O)O` [palmitic acid], the “Annexin V positive MPs in supernatants (MP formation/release)” value in data set [1] is “marked increase”. Further, the “endothelial cell oriented (chemotaxis) and non-oriented migration induced by cell-free supernatants of FFA-treated hepatocytes” value in data set [2] is recorded as “marked increase”.

With `CCCCCCCC/C=C\CCCCCCCC(=O)O` [oleic acid], the “Annexin V positive MPs in supernatants (MP formation/release)” value in data set [1] is “failed to induce any increase”. The “endothelial cell oriented (chemotaxis) and non-oriented migration induced by cell-free supernatants of FFA-treated hepatocytes” value in data set [2] is recorded as “not”.
